The text below walks through data of ChEMBL document CHEMBL1157896, “A repurposing strategy identifies novel synergistic inhibitors of Plasmodium falciparum heat shock protein 90” (J Med Chem, 2010).

The source made the active and inactive calls. The calls are words filed in the database; no cut-off is given here.

Assay [1] has as its system Plasmodium falciparum. The assay is described as follows: Displacement of bis-ANS from Plasmodium falciparum 3D7 Hsp90 expressed in Escherichia coli BL21(DE3) assessed as reduction in fluorescence at 100 uM after 30 min by fluorescent monochromator spectrophotometry. Type of assay: functional. Also noted: scale not given: the % may be the effect or the level left.
Assay [2] deals with Heat shock protein HSP90 (Homo sapiens) (UniProt P07900+P08238). The assay is described as follows: Displacement of bis-ANS from human Hsp90 assessed as reduction in fluorescence at 100 uM after 30 mins by fluorescent monochromator spectrophotometry. Type of assay: protein assay.
Assay [3] concerns Plasmodium falciparum. Briefly: Antimalarial activity against Plasmodium falciparum 3D7 infected in human erythrocytes after 48 hrs by flow-cytometry. It is filed as functional, organism-based. As to conditions: 3D7, 48 h.
The subject of assay [4] is Plasmodium falciparum. The assay is described as follows: Antimalarial activity against chloroquine-resistant Plasmodium falciparum W2 infected in human erythrocytes after 48 hrs by flow-cytometry. Type of assay: functional, organism-based. As to conditions: W2, 48 h.
Assay [5] deals with Plasmodium falciparum. Briefly: Antimalarial activity against multidrug-resistant Plasmodium falciparum isolate 208432 infected in human erythrocytes after 48 hrs by flow-cytometry. Type of assay: functional, organism-based. As to conditions: isolate 208432, 48 h.

As to `NC(CP(=O)(O)O)C(=O)O` (racemic), the Activity in the assay on Plasmodium falciparum [1] was above 70%. For the same molecule, the outcome in assay [2] was inactive. The 50% inhibitory concentration (IC50) in the assay on Plasmodium falciparum [3] turned out to be 60.3 nM; in the assay on Plasmodium falciparum [4] it was 84.4 nM; with Plasmodium falciparum [5], 47.1 nM.
On to `C[C@@H]1CC[C@H]2[C@@H](C)C(=O)O[C@@H]3O[C@@]4(C)CC[C@@H]1[C@]32OO4` [ARTEMISININ], for which the IC50 with Plasmodium falciparum [3] is 6.1 nM; in the assay with Plasmodium falciparum [4], 7.3 nM; with Plasmodium falciparum [5], 68.3 nM.
As to `COc1ccc2c(c1)[nH]c1c(C)nccc12` [HARMINE], the Activity with Plasmodium falciparum [1] is above 70%. Besides, the outcome in assay [2] was inactive. Also, the IC50 in the assay with Plasmodium falciparum [3] was 50.1 nM; in the assay on Plasmodium falciparum [4], 28 nM; in the assay on Plasmodium falciparum [5] it was 182 nM.
Take `OC(c1cc(C(F)(F)F)nc2c(C(F)(F)F)cccc12)C1CCCCN1` (stereo not given) [MEFLOQUINE]: the values for the IC50 in the assay on Plasmodium falciparum [3] and with Plasmodium falciparum [4] were 2.1 nM and 3.2 nM, respectively.
